The subject of one data set is echovirus 9 (ECHO-9). Description: Anti-echoviral cell culture assay (EC50), ECHO-9. Type of data set: cell-based. The note with it: Enterovirus B.
The test system of data set [1] is Coxsackievirus type B3 (CVB3). Description: Anticoxsackieviral cell culture assay (XTT, EC50), CVB3. The class given is cell-based, coxsackievirus B3 in H1-HeLa cells. On the procedure:
Anticoxsackieviral Cell Culture Assay:
Coxsackievirus types A-21 (CAV-21) and B3 (CVB3) were purchased from American Type Culture Collection (ATCC, Rockville, Md.). Virus stocks were propagated and antiviral assays were performed in H1-HeLa cells (ATCC). Cells were grown in minimal essential medium with 10% fetal bovine serum (Life Technologies, Gaithersburg, Md.). The ability of the compounds of this invention to protect cells against either CAV-21 or CVB3 infection was measured by the XTT dye reduction method. This method is described in Weislow et al., J. Natl. Cancer Inst. (1989), vol. 81, 577-586. H1-HeLa cells were infected with CAV-21 or CVB3 at a multiplicity of infection (m.o.i.) of 0.025 or 0.075, respectively, or mock-infected with medium only. H1-HeLa cells were plated at 4×10^4 cells per well in a 96-well plate and incubated with appropriate concentrations of the test compound. One day (CVB3) or two days (CAV-21) later, XTT/PMS was added to test plates and the amount of formazan produced was quantified spectrophotometrically at 450/650 nm. […] The therapeutic index (TI) was calculated by dividing the CC50 by the EC50.
A general note: Tetrazolium dyes change colour on reduction, which living cells bring about.

The test system of the next data set is coxsackievirus B2 (CVB2). The data set can be described thus: Anticoxsackieviral cell culture assay (EC50), CVB2. The class given is cell-based. The note with it: Enterovirus B.
A further data set deals with HRV-14. Description: Antirhinoviral H1-HeLa cell culture assay (XTT cell protection, EC50), HRV-14. The class given is cell-based, human rhinovirus (HRV) serotype-14 in H1-HeLa cells. The note with it: Rhinovirus B, HRV14, H1-HeLa. The gist of the method: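 H1-HeLa cells were infected with HRV-14 at m.o.i. 0.13, or mock-infected, and incubated with compound for two days. Cell protection was read by XTT/PMS formazan absorbance at 450/650 nm to give EC50. CC50 came from mock-infected cells, and TI = CC50/EC50.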

The target in data set [2] is T1, Recombinant rhinovirus 3C protease, serotype 14 (Human rhinovirus 14, UniProt P03303).
T1 construct: Recombinant rhinovirus 3C proteases; made in house
T1 sequence (P03303 1538-1719): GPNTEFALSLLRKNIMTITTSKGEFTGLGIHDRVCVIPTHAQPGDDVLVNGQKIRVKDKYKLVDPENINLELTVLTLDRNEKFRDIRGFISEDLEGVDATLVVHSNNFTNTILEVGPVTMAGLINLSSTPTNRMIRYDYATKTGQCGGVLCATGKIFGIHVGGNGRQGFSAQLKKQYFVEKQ
The data set can be described thus: Inhibition of rhinovirus 3C protease (FRET assay, kobs/[I]), serotype 14. The class given is biochemical. The gist of the method:
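Enzyme-start FRET assay with ~1 μM DABCYL/EDANS peptide substrate and 50-100 nM recombinant protease in 50 mM tris pH 7.6, 1 mM EDTA, 2% DMSO. Cleavage followed as fluorescence increase; kobs/[I] derived from progress curves.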

Data set [3] can be described thus: Cytotoxicity (CC50) in mock-infected H1-HeLa cells, XTT dye reduction. The class given is cell-based, human. The note with it: human, H1-HeLa cells; for CC50: line of CVB2; for CC50 at 1 day: line of CVB3. A digest of the protocol:
(§1)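 H1-HeLa cells mock-infected, read by XTT/PMS formazan at 450/650 nm.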

A further data set concerns H1-HeLa cells. Described as above. The class given is cell-based, human. A digest of the protocol: as §1
Setting [4] is: uninfected (mock-infected), line of CAV-21.
Where [5] appears, read: pH 7.6, HRV-14, read-out: kobs/[I] (3C protease inhibition activity).

pEC50: −log10 of the molar value. Where two headings read alike, the source gives them in different places.

The term pEC50 denotes the EC50 on a negative log10 scale, so that one unit is a factor of ten. A higher pEC50 goes with a low EC50. By CC50 is commonly meant the concentration giving 50% cytotoxicity. A high value points to lower toxicity to the cells. As to `C#CC[C@@H](C(=O)N[C@H](/C=C/C(=O)OCC)C[C@@H]1CCNC1=O)n1cccc(NC(=O)c2cc(C)on2)c1=O` [Compound 31, trans-(2′S,3″″S,4S)-4-(2′-{3″-[(5′″-Methyl-isoxazole-3′″-carbonyl)amino]-2″-oxo-2″H-pyridin-1″-yl}pent-4′-ynoyl-amino)-5-(2″″-oxopyrrolidin-3″″-yl)pent-2-enoic Acid Ethyl Ester], the negative logarithm of the EC50 (pEC50) was 7.92 in the data set on echovirus 9 (ECHO-9), 7.62 in data set [1], 7.24 with coxsackievirus B2 (CVB2) and 7.66 in the data set on HRV-14. In data set [2] (pH 7.6, read-out: kobs/[I] (3C protease inhibition activity)), the kinact/KI was determined as 223000 M⁻¹ s⁻¹. Moreover, the cytotoxic concentration (CC50) at 2 days in data set [3] (mock-infected, line of HRV-14) is greater than 10 µM; in data set [3] (setting [4]), greater than 10 µM. The CC50 (in data set [3] (uninfected (mock-infected)); in the data set on H1-HeLa cells (line of CVB5); in the data set on H1-HeLa cells (line of HRV-1A); in the data set with H1-HeLa cells (line of HRV-2); in the data set on H1-HeLa cells (line of HRV-3); in the data set on H1-HeLa cells (line of HRV-9)) was greater than 10 µM in each case. The CC50 in the data set on H1-HeLa cells (line of HRV-10), in the data set with H1-HeLa cells (line of HRV-11), in the data set on H1-HeLa cells (line of HRV-13), in the data set on H1-HeLa cells (line of HRV-16), in the data set with H1-HeLa cells (line of HRV-19) and in the data set on H1-HeLa cells (line of HRV-23) was greater than 10 µM throughout. In addition, the cytotoxic concentration (CC50) in the data set on H1-HeLa cells (line of HRV-25), in the data set with H1-HeLa cells (line of HRV-39), in the data set with H1-HeLa cells (line of HRV-78), with H1-HeLa cells (line of HRV-87) and in the data set on H1-HeLa cells (line of HRV-Hanks) was greater than 10 µM in each case. Moreover, the 50% cytotoxic concentration (CC50) at 1 day in data set [3] (uninfected (mock-infected)) was greater than 10 µM.
For `CCOC(=O)/C=C/[C@H](C[C@@H]1CCNC1=O)NC(=O)[C@H](CC)n1cccc(NC(=O)c2cc(C)on2)c1=O` [Compound 26, trans-(2′S,3″″S,4S)-4-(2′-{3″-[(5′″-Methylisoxazole-3′″-carbonyl)amino]-2″-oxo-2″H-pyridin-1″-yl}butyrylamino)-5-(2″″-oxopyrrolidin-3″″-yl)pent-2-enoic Acid Ethyl Ester], the pEC50 is 7.82 with echovirus 9 (ECHO-9), 7.80 in data set [1], 7.26 with coxsackievirus B2 (CVB2) and 7.26 in the data set on HRV-14. In data set [2] (setting [5]), the kinact/KI was found to be 170000 M⁻¹ s⁻¹. Moreover, the half-maximal cytotoxic concentration (CC50) at 2 days in data set [3] (mock-infected, line of HRV-14) is greater than 10 µM; in data set [3] (setting [4]), greater than 10 µM. The CC50 (in data set [3] (uninfected (mock-infected)); with H1-HeLa cells (line of CVB5); with H1-HeLa cells (line of HRV-1A); with H1-HeLa cells (line of HRV-2); in the data set with H1-HeLa cells (line of HRV-3); in the data set on H1-HeLa cells (line of HRV-9)) was greater than 10 µM throughout. Moreover, the cytotoxic concentration (CC50) with H1-HeLa cells (line of HRV-10), with H1-HeLa cells (line of HRV-11), in the data set with H1-HeLa cells (line of HRV-13), in the data set on H1-HeLa cells (line of HRV-16), in the data set with H1-HeLa cells (line of HRV-19) and in the data set on H1-HeLa cells (line of HRV-23) was greater than 10 µM throughout. Further, the CC50 in the data set with H1-HeLa cells (line of HRV-25), in the data set with H1-HeLa cells (line of HRV-39), in the data set on H1-HeLa cells (line of HRV-78), in the data set with H1-HeLa cells (line of HRV-87) and in the data set on H1-HeLa cells (line of HRV-Hanks) was greater than 10 µM in each case. Besides, in data set [3] (uninfected (mock-infected)), the CC50 at 1 day is greater than 10 µM.
Take `C#CC[C@@H](C(=O)N[C@H](/C=C/C(=O)OC(C)(C)C)C[C@@H]1CCNC1=O)n1cccc(NC(=O)c2cc(C)on2)c1=O` [Compound 41, trans-(2′S,3′″″S,4S)-4-[2′-(3″-{[1′″-(5″″-Methylisoxazol-3″″-yl)methanoyl]amino}-2′″-oxo-2′″H-pyridin-1′″-yl)pent-4″-ynoylamino]-5-(2′″″-oxopyrrolidin-3′″″-yl)pent-2-enoic Acid tert-Butyl Ester]: the pEC50 in the data set on echovirus 9 (ECHO-9) was 6.97; in data set [1], 6.93; in the data set on coxsackievirus B2 (CVB2), 6.67; in the data set on HRV-14, 7.21. For the same molecule, the kinact/KI in data set [2] (setting [5]) was 60500 M⁻¹ s⁻¹. In addition, the 50% cytotoxic concentration (CC50) at 2 days in data set [3] (mock-infected, line of HRV-14) is greater than 10 µM; in data set [3] (setting [4]), greater than 10 µM. The CC50 (in data set [3] (uninfected (mock-infected)); in the data set on H1-HeLa cells (line of CVB5); in the data set with H1-HeLa cells (line of HRV-2); in the data set with H1-HeLa cells (line of HRV-3); in the data set on H1-HeLa cells (line of HRV-9); in the data set with H1-HeLa cells (line of HRV-16)) was greater than 10 µM throughout. Moreover, the cytotoxic concentration (CC50) with H1-HeLa cells (line of HRV-25), in the data set with H1-HeLa cells (line of HRV-39) and with H1-HeLa cells (line of HRV-87) was greater than 10 µM throughout. Besides, the CC50 at 1 day in data set [3] (uninfected (mock-infected)) is greater than 10 µM.

For the origin of these results see patent US6514997B2, “Antipicornaviral compounds and compositions, their pharmaceutical uses, and materials for their synthesis” (Agouron Pharmaceuticals, Inc., priority 1999, dated 2003).
